Measurements reported in patent US20240317721A1, “PYRAZOLYL DERIVATIVES AS INHIBITORS OF THE KRAS MUTANT PROTEIN” (NOVARTIS AG, priority 2021, published 2024).

Target: KRasG12C (M1-K169, biotinylated on the N-terminus) (Homo sapiens (Human), UniProt P01116, G12C)
Experiment: Covalent competition assay: scintillation proximity assay (SPA) quantifying covalent modification of KRASG12C
Type: binding
Conditions: competition with radiolabeled covalent probe (Compound B/Compound A), 2 hours incubation, 10 nM KRasG12C
How it was run: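 Test compounds compete with a radiolabeled covalent probe for modification of N-terminally biotinylated KRasG12C(M1-K169):GDP, final 10 nM protein, 25 nM radio-ligand, 475 nM unlabelled ligand, 2 h with agitation in 20 mM Tris-HCl pH 7.5, 150 mM NaCl, 0.1 mM MgCl2, 0.01% Tween-20.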

| Structure (SMILES) | IC50 [nM] |
| --- | --- |
| C=CC(=O)N1CC2(CC(n3nc(N4CCN(C5CCCOC5)C[C@]4(C)CC)c(-c4c(Cl)c(C)cc5[nH]ncc45)c3C)C2)C1 (single isomer, unassigned) [Example 157a] | > 5000 |
| C=CC(=O)N1CC2(CC(n3nc(N4CCN(C5CCCOC5)C[C@]4(C)CC)c(-c4c(Cl)c(C)cc5[nH]ncc45)c3C)C2)C1 (single isomer, unassigned) [Example 157b] | > 5000 |
| C=CC(=O)N1CC2(CC(n3nc(N4CCN(C5COC5)C[C@]4(C)CC)c(-c4c(Cl)c(C)cc5[nH]nc(N)c45)c3C)C2)C1 (single isomer, unassigned) [Example 158b] | 172 |
| C=CC(=O)N1CC2(CC(n3nc(N4CCN(C5COCCOC5)C[C@]4(C)CC)c(-c4c(Cl)c(C)cc5[nH]ncc45)c3C)C2)C1 (single isomer, unassigned) [Example 159a] | 715 |
| C=CC(=O)N1CC2(CC(n3nc(N4CCN(CC(C)(C)O)CC45CCC5)c(-c4c(Cl)c(C)cc5[nH]ncc45)c3C)C2)C1 (single isomer, unassigned) [Example 160a, 1-(6-(4-(5-Chloro-6-methyl-1H-indazol-4-yl)-3-(8-(2-hydroxy-2-methylpropyl)-5,8-diazaspiro[3.5]nonan-5-yl)-5-methyl-1H-pyrazol-1-yl)-2-azaspiro[3.3]heptan-2-yl)prop-2-en-1-one] | > 5000 |
| C=CC(=O)N1CC2(CC(n3nc(N4CCN(CC(C)(C)O)CC45CCC5)c(-c4c(Cl)c(C)cc5[nH]ncc45)c3C)C2)C1 (single isomer, unassigned) [Example 160b, 1-(6-(4-(5-Chloro-6-methyl-1H-indazol-4-yl)-3-(8-(2-hydroxy-2-methylpropyl)-5,8-diazaspiro[3.5]nonan-5-yl)-5-methyl-1H-pyrazol-1-yl)-2-azaspiro[3.3]heptan-2-yl)prop-2-en-1-one] | 27 |
| C=CC(=O)N1CC2(CC(n3nc(N4CCN(CC(C)(C)O)C[C@]4(C)CC)c(-c4c(Cl)c(C)cc5[nH]ncc45)c3C)C2)C1 (single isomer, unassigned) [Example 161a] | 912 |
| C=CC(=O)N1CC2(CC(n3nc(N4CCN(CCO)CC45CCC5)c(-c4c(Cl)c(C)cc5[nH]ncc45)c3C)C2)C1 (single isomer, unassigned) [Example 162a, 1-(6-(4-(5-chloro-6-methyl-1H-indazol-4-yl)-3-(8-(2-hydroxyethyl)-5,8-diazaspiro[3.5]nonan-5-yl)-5-methyl-1H-pyrazol-1-yl)-2-azaspiro[3.3]heptan-2-yl)prop-2-en-1-one] | > 5000 |

Stronger by IC50, values ahead:

| IC50 [nM] | Structure (SMILES) |
| --- | --- |
| 8 | C=CC(=O)N1CC2(CC(n3nc(N4CCN(C5CCOCC5)C[C@@]4(CC)C(F)F)c(-c4c(Cl)c(C)cc5[nH]ncc45)c3C)C2)C1 (single isomer, unassigned) [Example 156b] |
| 6 | C=CC(=O)N1CC2(CC(n3nc(N4CCN(C5CCCOC5)C[C@]4(C)CC)c(-c4c(Cl)c(C)cc5[nH]ncc45)c3C)C2)C1 (single isomer, unassigned) [Example 157c] |
| 7 | C=CC(=O)N1CC2(CC(n3nc(N4CCN(C5CCCOC5)C[C@]4(C)CC)c(-c4c(Cl)c(C)cc5[nH]ncc45)c3C)C2)C1 (single isomer, unassigned) [Example 157d] |
| 6 | C=CC(=O)N1CC2(CC(n3nc(N4CCN(C5COC5)C[C@]4(C)CC)c(-c4c(Cl)c(C)cc5[nH]nc(N)c45)c3C)C2)C1 (single isomer, unassigned) [Example 158a] |
| 9 | C=CC(=O)N1CC2(CC(n3nc(N4CCN(C5COCCOC5)C[C@]4(C)CC)c(-c4c(Cl)c(C)cc5[nH]ncc45)c3C)C2)C1 (single isomer, unassigned) [Example 159b] |
| 8 | C=CC(=O)N1CC2(CC(n3nc(N4CCN(CC(C)(C)O)C[C@]4(C)CC)c(-c4c(Cl)c(C)cc5[nH]ncc45)c3C)C2)C1 (single isomer, unassigned) [Example 161b] |
